Target: T1, Sirt6 (Homo sapiens, UniProt Q8N6T7)
T1 construct: purchased CycLex CY-1156V2
Assay: Measurement of Sirt6 Activity (CycLex Sirt6 Deacetylase Fluorometric Assay Kit)
Type: biochemical
Settings: compound at 10 μM; fluorescence relative to the group without compound treatment (positive control group)
Method in brief: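 Recombinant Sirt6 with fluoro-labelled acetyl-lysine peptide, NAD and lysylendopeptidase developer, compound added from 10× stock in PBS; 1 h at room temperature. Fluorescence read at ex 490/em 530 nm; activation expressed as fluorescence ratio relative to enzyme without compound.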

T1 sequence (Q8N6T7 whole entry): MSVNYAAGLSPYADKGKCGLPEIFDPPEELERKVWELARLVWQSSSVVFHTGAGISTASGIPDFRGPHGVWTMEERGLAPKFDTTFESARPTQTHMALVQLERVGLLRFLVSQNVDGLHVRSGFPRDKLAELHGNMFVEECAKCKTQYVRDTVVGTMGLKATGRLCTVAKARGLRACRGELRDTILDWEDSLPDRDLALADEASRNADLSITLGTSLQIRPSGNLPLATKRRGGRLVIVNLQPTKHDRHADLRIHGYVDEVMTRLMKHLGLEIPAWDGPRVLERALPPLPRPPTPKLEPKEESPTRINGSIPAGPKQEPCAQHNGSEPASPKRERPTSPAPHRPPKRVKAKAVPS

| SMILES | Sirt6 Activity (% activity, 10 μM) [% activity] |
| --- | --- |
| CN(C)S(=O)(=O)c1cccc(-c2nn(-c3ccc(F)cc3)c(=O)c3ccccc23)c1 [Example 88, 3-(3-(4-Fluorophenyl)-4-oxo-3,4-dihydrophthalazin-1-yl)-N,N-dimethylbenzene Sulfonamide] | 180 |
| CS(=O)(=O)c1cccc(-c2nn(-c3ccc(F)cc3F)c(=O)c3ccccc23)c1 [Example 89, 2-(2,4-Difluorophenyl)-4-(3-(methylsulfonyl)phenyl)phthalazin-1 (2H)-one] | 339 |
| CCS(=O)(=O)c1cccc(-c2nn(-c3ccc(F)cc3F)c(=O)c3ccccc23)c1 [Example 90, 2-(2,4-Difluorophenyl)-4-(3-(ethylsulfonyl)phenyl)phthalazin-1(2H)-one] | 283 |
| CNS(=O)(=O)c1cccc(-c2nn(-c3ccc(F)cc3F)c(=O)c3ccccc23)c1 [Example 91, 3-(3-(2,4-Difluorophenyl)-4-oxo-3,4-dihydrophthalazin-1-yl)-N-methylbenzene Sulfonamide] | 272 |
| CCNS(=O)(=O)c1cccc(-c2nn(-c3ccc(F)cc3F)c(=O)c3ccccc23)c1 [Example 92, 3-(3-(2,4-Difluorophenyl)-4-oxo-3,4-dihydrophthalazin-1-yl)-N-ethylbenzene Sulfonamide] | 208 |
| CN(C)S(=O)(=O)c1cccc(-c2nn(-c3ccc(F)cc3F)c(=O)c3ccccc23)c1 [Example 93, 3-(3-(2,4-Difluorophenyl)-4-oxo-3,4-dihydrophthalazin-1-yl)-N,N-dimethylbenzene Sulfonamide] | 227 |
| C/[N+]([O-])=C/c1cccc(-c2nn(-c3ccccc3F)c(=O)c3ccccc23)c1 [Example 94, (Z)-1-(3-(3-(2-Fluorophenyl)-4-oxo-3,4-dihydrophthalazin-1-yl)phenyl)-N-methyl Methanimine Oxide] | 272 |
| CC(C)/[N+]([O-])=C/c1cccc(-c2nn(-c3ccccc3F)c(=O)c3ccccc23)c1 [Example 95, (Z)-1-(3-(3-(2-Fluorophenyl)-4-oxo-3,4-dihydrophthalazin-1-yl)phenyl)-N-isopropyl Methanimine Oxide] | 133 |
| CC(C)(C)/[N+]([O-])=C/c1cccc(-c2nn(-c3ccccc3F)c(=O)c3ccccc23)c1 [Example 96, (Z)—N-tert-Butyl-1-(3-(3-(2-fluorophenyl)-4-oxo-3,4-dihydrophthalazin-1-yl)phenyl)methanimine Oxide] | 176 |
| CS(=O)(=O)c1cccc(-c2nn(-c3ccccc3F)c(=O)c3ccccc23)c1 [Example 97, 2-(2-Fluorophenyl)-4-(3-(methylsulfonyl)phenyl)phthalazin-1(2H)-one] | 286 |
| CCS(=O)(=O)c1cccc(-c2nn(-c3ccccc3F)c(=O)c3ccccc23)c1 [Example 98, 4-(3-(Ethylsulfonyl)phenyl)-2-(2-fluorophenyl)phthalazin-1(2H)-one] | 264 |
| CNS(=O)(=O)c1cccc(-c2nn(-c3ccccc3F)c(=O)c3ccccc23)c1 [Example 99, 3-(3-(2-Fluorophenyl)-4-oxo-3,4-dihydrophthalazin-1-yl)-N-methylbenzenesulfonamide] | 259 |
| CCNS(=O)(=O)c1cccc(-c2nn(-c3ccccc3F)c(=O)c3ccccc23)c1 [Example 100, N-Ethyl-3-(3-(2-fluorophenyl)-4-oxo-3,4-dihydrophthalazin-1-yl)benzenesulfonamide] | 196 |
| CN(C)S(=O)(=O)c1cccc(-c2nn(-c3ccccc3F)c(=O)c3ccccc23)c1 [Example 101, 3-(3-(2-Fluorophenyl)-4-oxo-3,4-dihydrophthalazin-1-yl)-N,N-dimethylbenzene Sulfonamide] | 153 |
| C/[N+]([O-])=C/c1cccc(-c2nn(-c3c(F)cccc3F)c(=O)c3ccccc23)c1 [Example 102, (Z)-1-(3-(3-(2,6-Difluorophenyl)-4-oxo-3,4-dihydrophthalazin-1-yl)phenyl)-N-methylmethanimine Oxide] | 206 |
| CC(C)/[N+]([O-])=C/c1cccc(-c2nn(-c3c(F)cccc3F)c(=O)c3ccccc23)c1 [Example 103, (Z)-1-(3-(3-(2,6-Difluorophenyl)-4-oxo-3,4-dihydrophthalazin-1-yl)phenyl)-N-isopropylmethanimine Oxide] | 324 |
| CC(C)(C)/[N+]([O-])=C/c1cccc(-c2nn(-c3c(F)cccc3F)c(=O)c3ccccc23)c1 [Example 104, (Z)—N-tert-Butyl-1-(3-(3-(2,6-difluorophenyl)-4-oxo-3,4-dihydrophthalazin-1-yl)phenyl)methanimine Oxide] | 284 |
| CS(=O)(=O)c1cccc(-c2nn(-c3c(F)cccc3F)c(=O)c3ccccc23)c1 [Example 105, 2-(2,6-Difluorophenyl)-4-(3-(methylsulfonyl)phenyl)phthalazin-1 (2H)-one] | 226 |

| SMILES | Sirt6 Activity (% activity, 10 μM) [% activity] |
| --- | --- |
| CCS(=O)(=O)c1cccc(-c2nn(-c3c(F)cccc3F)c(=O)c3ccccc23)c1 [Example 106, 2-(2,6-Difluorophenyl)-4-(3-(ethylsulfonyl)phenyl)phthalazin-1(2H)-one] | 141 |
| CNS(=O)(=O)c1cccc(-c2nn(-c3c(F)cccc3F)c(=O)c3ccccc23)c1 [Example 107, 3-(3-(2,6-Difluorophenyl)-4-oxo-3,4-dihydrophthalazin-1-yl)-N-methylbenzenesulfonamide] | 233 |
| CCNS(=O)(=O)c1cccc(-c2nn(-c3c(F)cccc3F)c(=O)c3ccccc23)c1 [Example 108, 3-(3-(2,6-Difluorophenyl)-4-oxo-3,4-dihydrophthalazin-1-yl)-N-ethylbenzenesulfonamide] | 209 |
| CN(C)S(=O)(=O)c1cccc(-c2nn(-c3c(F)cccc3F)c(=O)c3ccccc23)c1 [Example 109, 3-(3-(2,6-Difluorophenyl)-4-oxo-3,4-dihydrophthalazin-1-yl)-N,N-dimethylbenzenesulfonamide] | 188 |
| CS(=O)(=O)c1cccc(-c2nn(-c3ccccc3)c(=O)c3ccc(F)cc23)c1 [Example 110, 6-Fluoro-4-(3-(methylsulfonyl)phenyl)-2-phenylphthalazin-1(2H)-one] | 129 |
| CNS(=O)(=O)c1cccc(-c2nn(-c3ccccc3)c(=O)c3ccc(F)cc23)c1 [Example 111, 3-(7-Fluoro-4-oxo-3-phenyl-3,4-dihydrophthalazin-1-yl)-N-methylbenzenesulfonamide] | 126 |
| CS(=O)(=O)c1cccc(-c2nn(-c3ccccc3)c(=O)c3cc(F)ccc23)c1 [Example 112, 7-Fluoro-4-(3-(methylsulfonyl)phenyl)-2-phenylphthalazin-1(2H)-one] | 103 |
| CNS(=O)(=O)c1cccc(-c2nn(-c3ccccc3)c(=O)c3cc(F)ccc23)c1 [Example 113, 3-(6-Fluoro-4-oxo-3-phenyl-3,4-dihydrophthalazin-1-yl)-N-methylbenzenesulfonamide] | 116 |
| O=c1c2ccccc2c(-c2ccc[n+]([O-])c2)nn1-c1ccc(F)cc1 [Example 114, 3-(3-(4-Fluorophenyl)-4-oxo-3,4-dihydrophthalazin-1-yl)pyridine 1-oxide] | 226 |
| O=c1c2ccccc2c(-c2cccnc2)nn1-c1ccc(F)cc1F [Example 115, 2-(2,4-Difluorophenyl)-4-(pyridin-3-yl)phthalazin-1(2H)-one] | 405 |
| O=c1c2ccccc2c(-c2cccnc2)nn1-c1c(F)cccc1F [Example 116, 2-(2,6-Difluorophenyl)-4-(pyridin-3-yl)phthalazin-1(2H)-one] | 227 |
| O=c1c2ccccc2c(-c2ccc[n+]([O-])c2)nn1-c1ccc(F)cc1F [Example 117, 3-(3-(2,4-Difluorophenyl)-4-oxo-3,4-dihydrophthalazin-1-yl)pyridine 1-oxide] | 318 |
| O=c1c2ccccc2c(-c2ccc[n+]([O-])c2)nn1-c1c(F)cccc1F [Example 118, 3-(3-(2,6-Difluorophenyl)-4-oxo-3,4-dihydrophthalazin-1-yl)pyridine 1-oxide] | 231 |
| CS(=O)(=O)c1cccc(-c2nn(-c3ccc(F)cc3F)c(=O)c3ccc(F)cc23)c1 [Example 119, 2-(2,4-Difluorophenyl)-6-fluoro-4-(3-(methylsulfonyl)phenyl)phthalazin-1(2H)-one] | 166 |
| CS(=O)(=O)c1cccc(-c2nn(-c3ccc(F)cc3F)c(=O)c3cc(F)ccc23)c1 [Example 120, 2-(2,4-Difluorophenyl)-7-fluoro-4-(3-(methylsulfonyl)phenyl)phthalazin-1(2H)-one] | 178 |
| CNS(=O)(=O)c1cccc(-c2nn(-c3ccc(F)cc3F)c(=O)c3ccc(F)cc23)c1 [Example 121, 3-(3-(2,4-Difluorophenyl)-7-fluoro-4-oxo-3,4-dihydrophthalazin-1-yl)-N-methylbenzenesulfonamide] | 157 |
| CNS(=O)(=O)c1cccc(-c2nn(-c3ccc(F)cc3F)c(=O)c3cc(F)ccc23)c1 [Example 122, 3-(3-(2,4-Difluorophenyl)-6-fluoro-4-oxo-3,4-dihydrophthalazin-1-yl)-N-methylbenzenesulfonamide] | 177 |
| CCS(=O)(=O)c1cccc(-c2nn(-c3ccc(F)cc3F)c(=O)c3ccc(F)cc23)c1 [Example 123, 2-(2,4-Difluorophenyl)-4-(3-(ethylsulfonyl)phenyl)-6-fluorophthalazin-1(2H)-one] | 253 |

Reference: US20220235011A1, “PHTHALAZINONE COMPOUNDS AND USE THEREOF” (ST PHARM CO., LTD., priority 2019, published 2022)
